In ChEMBL document CHEMBL3885881, “DrugMatrix”:
“And” between values parts separate entries of the source, which are not always exact repeats. Identical values can stand only once.

Species: Rattus norvegicus
Assay: DrugMatrix - Regimen: Daily Repeat
Type: toxicity, organism-based, Sprague-Dawley
Parameters: regimen Daily Repeat, gender Male, age 6-8 weeks
Details: in vivo, po, route oral GAVAGE, vehicle .5 % CMC; for BASOPHIL / EOSINOPHIL / ERYTHROCYTE COUNT / HEMATOCRIT / HEMOGLOBIN / LEUKOCYTE COUNT / LYMPHOCYTE / MEAN CORPUSCULAR HEMOGLOBIN / MEAN CORPUSCULAR HEMOGLOBIN CONCENTRATION / MEAN CORPUSCULAR VOLUME / MONOCYTE / NEUTROPHIL / PLATELET COUNT / ABSOLUTE BASOPHIL / ABSOLUTE EOSINOPHIL / ABSOLUTE LYMPHOCYTE / ABSOLUTE MONOCYTE / ABSOLUTE SEGMENTED NEUTROPHIL: tissue Blood; for ALANINE AMINOTRANSFERASE / ALBUMIN / ALKALINE PHOSPHATASE / ASPARTATE AMINOTRANSFERASE / BLOOD UREA NITROGEN / CHLORIDE / CHOLESTEROL / CREATINE PHOSPHOKINASE / CREATININE / GLUCOSE / PHOSPHORUS / POTASSIUM / SODIUM / TOTAL BILIRUBIN / TOTAL PROTEIN / LACTATE DEHYDROGENASE / LIPASE / URIC ACID: tissue Plasma
[1] = 0 mg/kg, 72 h, dose level Control, time 3 day
[2] = 0 mg/kg, 120 h, dose level Control, time 5 day
[3] = 0 mg/kg, 2184 h, dose level Control, time 91 day
[4] = 0 mg/kg, […], dose level Control, time 28 day
[5] = 0.0007 mg/kg, 120 h, dose level Low, time 5 day
[6] = 0.0007 mg/kg, 2184 h, dose level Low, time 91 day

Compound: Clc1cc2c(cc1Cl)Oc1cc(Cl)c(Cl)cc1O2 [2,3,7,8-TETRACHLORODIBENZO-P-DIOXIN]
- BASOPHIL [1]: 0.52%
- EOSINOPHIL [1]: 0.48%
- ERYTHROCYTE COUNT [1]: 6.68 x10E6/uL
- HEMATOCRIT [1]: 43.07%
- HEMOGLOBIN [1]: 13.48 G/DL
- LEUKOCYTE COUNT [1]: 11.41 x10E3/uL
- LYMPHOCYTE [1]: 80.78%
- MEAN CORPUSCULAR HEMOGLOBIN [1]: 20.2 pg
- MEAN CORPUSCULAR HEMOGLOBIN CONCENTRATION [1]: 31.32 G/DL
- MEAN CORPUSCULAR VOLUME [1]: 64.45 fL
- MONOCYTE [1]: 2.23%
- NEUTROPHIL [1]: 14.73%
- PLATELET COUNT [1]: 1225.83 x10E3/uL
- ALANINE AMINOTRANSFERASE [1]: 44.5 u/L
- ALBUMIN [1]: 3.62 G/DL
- ALKALINE PHOSPHATASE [1]: 404.5 u/L
- ASPARTATE AMINOTRANSFERASE [1]: 71.67 u/L
- BLOOD UREA NITROGEN [1]: 15 mg/dL
- CHLORIDE [1]: 103 MEQ/L
- CHOLESTEROL [1]: 96.83 mg/dL
- CREATINE PHOSPHOKINASE [1]: 236 u/L
- CREATININE [1]: 0.43 mg/dL
- GLUCOSE [1]: 186.83 mg/dL
- PHOSPHORUS [1]: 12.67 mg/dL
- POTASSIUM [1]: 7.1 MEQ/L
- SODIUM [1]: 147.33 MEQ/L
- TOTAL BILIRUBIN [1]: 0.52 mg/dL
- TOTAL PROTEIN [1]: 6.18 G/DL
- ABSOLUTE BASOPHIL [2]: 92 cells/µL
- ABSOLUTE EOSINOPHIL [2]: 52 cells/µL
- ABSOLUTE LYMPHOCYTE [2]: 6560 cells/µL
- ABSOLUTE MONOCYTE [2]: 160 cells/µL
- ABSOLUTE SEGMENTED NEUTROPHIL [2]: 1130 cells/µL
- BASOPHIL [2]: 1.14% and 0.92%
- EOSINOPHIL [2]: 0.68% and 0.43%
- ERYTHROCYTE COUNT [2]: 7.51 x10E6/uL and 7.03 x10E6/uL
- HEMATOCRIT [2]: 46.04% and 46.55%
- HEMOGLOBIN [2]: 15.62 G/DL and 14.32 G/DL
- LEUKOCYTE COUNT [2]: 8.03 x10E3/uL and 12.22 x10E3/uL
- LYMPHOCYTE [2]: 81.54% and 82.65%
- MEAN CORPUSCULAR HEMOGLOBIN [2]: 20.84 pg and 20.35 pg
- MEAN CORPUSCULAR HEMOGLOBIN CONCENTRATION [2]: 33.94 G/DL and 30.77 G/DL
- MEAN CORPUSCULAR VOLUME [2]: 61.42 fL and 66.28 fL
- MONOCYTE [2]: 2% and 2.28%
- NEUTROPHIL [2]: 14.24% and 12.73%
- PLATELET COUNT [2]: 1427.2 x10E3/uL and 1268.67 x10E3/uL
- ALANINE AMINOTRANSFERASE [2]: 35.6 u/L and 44.5 u/L
- ALBUMIN [2]: 3.64 G/DL and 3.73 G/DL
- ALKALINE PHOSPHATASE [2]: 233 u/L and 340.83 u/L
- ASPARTATE AMINOTRANSFERASE [2]: 81 u/L and 66.5 u/L
- BLOOD UREA NITROGEN [2]: 12 mg/dL and 13.33 mg/dL
- CHLORIDE [2]: 109.4 MEQ/L and 102.17 MEQ/L
- CHOLESTEROL [2]: 47.6 mg/dL and 82.17 mg/dL
- CREATINE PHOSPHOKINASE [2]: 183.2 u/L and 146.67 u/L
- CREATININE [2]: 0.4 mg/dL and 0.35 mg/dL
- GLUCOSE [2]: 134.6 mg/dL and 186.17 mg/dL
- LACTATE DEHYDROGENASE [2]: 89.4 u/L
- LIPASE [2]: 17.2 u/L
- PHOSPHORUS [2]: 13.02 mg/dL and 11.83 mg/dL
- POTASSIUM [2]: 7 MEQ/L and 6.47 MEQ/L
- SODIUM [2]: 149.6 MEQ/L and 148.83 MEQ/L
- TOTAL PROTEIN [2]: 6.06 G/DL and 6.27 G/DL
- URIC ACID [2]: 1.04 mg/dL
- ABSOLUTE BASOPHIL [3]: 130 cells/µL
- ABSOLUTE EOSINOPHIL [3]: 70 cells/µL
- ABSOLUTE LYMPHOCYTE [3]: 8670 cells/µL
- ABSOLUTE MONOCYTE [3]: 160 cells/µL
- ABSOLUTE SEGMENTED NEUTROPHIL [3]: 1530 cells/µL
- BASOPHIL [3]: 1.13%
- EOSINOPHIL [3]: 0.66%
- ERYTHROCYTE COUNT [3]: 9.13 x10E6/uL
- HEMATOCRIT [3]: 48.47%
- HEMOGLOBIN [3]: 16.56 G/DL
- LEUKOCYTE COUNT [3]: 10.5 x10E3/uL
- LYMPHOCYTE [3]: 81.63%
- MEAN CORPUSCULAR HEMOGLOBIN [3]: 18.16 pg
- MEAN CORPUSCULAR HEMOGLOBIN CONCENTRATION [3]: 34.14 G/DL
- MEAN CORPUSCULAR VOLUME [3]: 53.14 fL
- MONOCYTE [3]: 1.53%
- NEUTROPHIL [3]: 14.71%
- PLATELET COUNT [3]: 1280.22 x10E3/uL
- ALANINE AMINOTRANSFERASE [3]: 28.89 u/L
- ALBUMIN [3]: 3.69 G/DL
- ALKALINE PHOSPHATASE [3]: 101.11 u/L
- ASPARTATE AMINOTRANSFERASE [3]: 70.67 u/L
- BLOOD UREA NITROGEN [3]: 16.78 mg/dL
- CHLORIDE [3]: 104.56 MEQ/L
- CHOLESTEROL [3]: 58.78 mg/dL
- CREATINE PHOSPHOKINASE [3]: 91.22 u/L
- CREATININE [3]: 0.61 mg/dL
- GLUCOSE [3]: 142.33 mg/dL
- LACTATE DEHYDROGENASE [3]: 81.67 u/L
- LIPASE [3]: 13 u/L
- PHOSPHORUS [3]: 7.54 mg/dL
- POTASSIUM [3]: 6.27 MEQ/L
- SODIUM [3]: 149.89 MEQ/L
- TOTAL BILIRUBIN [3]: 0.19 mg/dL
- TOTAL PROTEIN [3]: 7.12 G/DL
- URIC ACID [3]: 0.97 mg/dL
- ABSOLUTE BASOPHIL [4]: 150 cells/µL
- ABSOLUTE EOSINOPHIL [4]: 54 cells/µL
- ABSOLUTE LYMPHOCYTE [4]: 8890 cells/µL
- ABSOLUTE MONOCYTE [4]: 190 cells/µL
- ABSOLUTE SEGMENTED NEUTROPHIL [4]: 2250 cells/µL
- BASOPHIL [4]: 1.26%
- EOSINOPHIL [4]: 0.46%
- ERYTHROCYTE COUNT [4]: 8.34 x10E6/uL
- HEMATOCRIT [4]: 48.66%
- HEMOGLOBIN [4]: 16.04 G/DL
- LEUKOCYTE COUNT [4]: 11.58 x10E3/uL
- LYMPHOCYTE [4]: 76.74%
- MEAN CORPUSCULAR HEMOGLOBIN [4]: 19.2 pg
- MEAN CORPUSCULAR HEMOGLOBIN CONCENTRATION [4]: 32.92 G/DL
- MEAN CORPUSCULAR VOLUME [4]: 58.32 fL
- MONOCYTE [4]: 1.76%
- NEUTROPHIL [4]: 19.44%
- PLATELET COUNT [4]: 1282.6 x10E3/uL
- ALANINE AMINOTRANSFERASE [4]: 27 u/L
- ALBUMIN [4]: 3.68 G/DL
- ALKALINE PHOSPHATASE [4]: 146.2 u/L
- ASPARTATE AMINOTRANSFERASE [4]: 66.6 u/L
- BLOOD UREA NITROGEN [4]: 12.4 mg/dL
- CHLORIDE [4]: 104.6 MEQ/L
- CHOLESTEROL [4]: 59.6 mg/dL
- CREATINE PHOSPHOKINASE [4]: 121.8 u/L
- CREATININE [4]: 0.6 mg/dL
- GLUCOSE [4]: 143 mg/dL
- LACTATE DEHYDROGENASE [4]: 87.8 u/L
- LIPASE [4]: 17.4 u/L
- PHOSPHORUS [4]: 8.68 mg/dL
- POTASSIUM [4]: 6.02 MEQ/L
- SODIUM [4]: 152.8 MEQ/L
- TOTAL BILIRUBIN [4]: 0.26 mg/dL
- TOTAL PROTEIN [4]: 6.92 G/DL
- URIC ACID [4]: 0.52 mg/dL
- ABSOLUTE BASOPHIL [5]: 72 cells/µL
- ABSOLUTE EOSINOPHIL [5]: 44 cells/µL
- ABSOLUTE LYMPHOCYTE [5]: 8990 cells/µL
- ABSOLUTE MONOCYTE [5]: 220 cells/µL
- ABSOLUTE SEGMENTED NEUTROPHIL [5]: 1360 cells/µL
- BASOPHIL [5]: 0.68%
- EOSINOPHIL [5]: 0.38%
- ERYTHROCYTE COUNT [5]: 7.39 x10E6/uL
- HEMATOCRIT [5]: 46.1%
- HEMOGLOBIN [5]: 15.68 G/DL
- LEUKOCYTE COUNT [5]: 10.75 x10E3/uL
- LYMPHOCYTE [5]: 83.64%
- MEAN CORPUSCULAR HEMOGLOBIN [5]: 21.26 pg
- MEAN CORPUSCULAR HEMOGLOBIN CONCENTRATION [5]: 34.02 G/DL
- MEAN CORPUSCULAR VOLUME [5]: 62.42 fL
- MONOCYTE [5]: 2.06%
- NEUTROPHIL [5]: 12.68%
- PLATELET COUNT [5]: 1506.2 x10E3/uL
- ALANINE AMINOTRANSFERASE [5]: 30.8 u/L
- ALBUMIN [5]: 3.64 G/DL
- ALKALINE PHOSPHATASE [5]: 238.8 u/L
- ASPARTATE AMINOTRANSFERASE [5]: 76.4 u/L
- BLOOD UREA NITROGEN [5]: 11.4 mg/dL
- CHLORIDE [5]: 107.8 MEQ/L
- CHOLESTEROL [5]: 61.4 mg/dL
- CREATINE PHOSPHOKINASE [5]: 181.6 u/L
- CREATININE [5]: 0.5 mg/dL
- GLUCOSE [5]: 115 mg/dL
- LACTATE DEHYDROGENASE [5]: 69.6 u/L
- LIPASE [5]: 31.8 u/L
- PHOSPHORUS [5]: 11.8 mg/dL
- POTASSIUM [5]: 6.66 MEQ/L
- SODIUM [5]: 150.8 MEQ/L
- TOTAL BILIRUBIN [5]: 0.14 mg/dL
- TOTAL PROTEIN [5]: 6.08 G/DL
- URIC ACID [5]: 0.72 mg/dL
- ABSOLUTE BASOPHIL [6]: 270 cells/µL
- ABSOLUTE EOSINOPHIL [6]: 140 cells/µL
- ABSOLUTE LYMPHOCYTE [6]: 10000 cells/µL
- ABSOLUTE MONOCYTE [6]: 280 cells/µL
- ABSOLUTE SEGMENTED NEUTROPHIL [6]: 2090 cells/µL
- BASOPHIL [6]: 2.13%
